Source: patent US10202580B2, “Adult oligodendrocyte-type 2 astrocyte progenitor cell production method” (Japan Science and Technology Agency, priority 2014, dated 2019)

Tested on: proliferating OPC
Experiment: Number of cell divisions per colony in TH- or RA-containing medium, oxygen 1.5% by volume (Example 3)
Format: cell-based, rat
Details: RA 1 ng/mL; 1.5% O2; 12 days
Experimental: In addition, unless specifically indicated otherwise, the proliferating OPC used in the following examples were isolated from the optic nerves of 7-day-old rats (P7) in accordance with the immunopanning method of Barres, et al. (Barres, et al., Cell, 1992, Vol. 70, p. 31-46), and the purity thereof (percentage of proliferating OPC relative to all cells) was 99.9% or more.
Proliferating OPC were cultured in medium to which was added thyroid hormone or medium to which was added retinoic acid in an environment having an oxygen concentration of 1.5% by volume followed by investigating the effect of retinoic acid […] on the proliferating OPC.
Six glass bottom culture dishes having a diameter of 12 mm and-coated with PDL were prepared by seeding with 300 proliferating OPC per culture disk, followed by culturing for 12 days at 37° C. in an environment having an oxygen concentration of 1.5% by volume and carbon dioxide concentration of 5% by volume. […]
Following completion of culturing, the numbers of cells that formed colonies were respectively counted and the number of cell divisions was determined for each colony. […]

## CC1=C(/C=C/C(C)=C/C=C/C(C)=C/C(=O)O)C(C)(C)CCC1 [RA, all-trans retinoic acid]
  effect on proliferating OPC in a low oxygen environment: able to interrupt proliferation of proliferating OPC and induce differentiation to adult OPC
